From patent US10201586B2 (dated 2019)
Values belong to the compound of their own block, whether it stands above or below them. Where a SMILES comes first, the peptide text is derived from it. Bridges are numbered along the chain shown (N, C = ends). [ ]: non-standard residue; d: D form. Aib = CC(C)(N)C(=O)O; Sar = CNCC(=O)O

Tests used:
[1] = target: T1, TFPI (Homo sapiens, UniProt P10646); experiment: % Inhibition @ 2.5µM; details: read-out: % Inhibition @ […]
Target sequence in this assay (P10646 29-304 limits assumed): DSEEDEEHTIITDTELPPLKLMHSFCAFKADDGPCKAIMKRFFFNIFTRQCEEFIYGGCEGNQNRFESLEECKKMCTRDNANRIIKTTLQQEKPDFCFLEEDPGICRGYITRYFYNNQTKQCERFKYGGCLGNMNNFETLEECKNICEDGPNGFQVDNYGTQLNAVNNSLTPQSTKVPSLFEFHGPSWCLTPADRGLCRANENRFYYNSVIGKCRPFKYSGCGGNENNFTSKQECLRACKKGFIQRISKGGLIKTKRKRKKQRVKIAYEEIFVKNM

[2] = target: T1, TFPI; experiment: Extrinsic Tenase Inhibition assay | % Inhibition @ 2.5µM; details: read-out: Extrinsic Tenase Inhibition assay | % Inhibition @ […]
Target sequence in this assay (P10646 29-304 limits assumed): as above

[3] = target: T1, TFPI; experiment: % Inhibition @ 2.5µM; details: read-out: % Inhibition @ […]; remark: listed apart in the source
Target sequence in this assay (P10646 29-304 limits assumed): as above

[4] = target: T1, TFPI; experiment: Extrinsic Tenase Inhibition assay | EC50 (µM)
Target sequence in this assay (P10646 29-304 limits assumed): as above

[5] = target: T1, TFPI; experiment: Extrinsic Tenase Inhibition assay | % Inhibition @ 2.5µM; details: read-out: Extrinsic Tenase Inhibition assay | % Inhibition @ […]; remark: listed apart in the source
Target sequence in this assay (P10646 29-304 limits assumed): as above

[6] = target: T1, TFPI; experiment: FXa Inhibition assay | EC50 (µM)
Target sequence in this assay (P10646 29-304 limits assumed): as above

[7] = target: T1, TFPI; experiment: Extrinsic Tenase Inhibition assay | % Inhibition @ 2.5µM

inhibition at […] [1]: 11%
inhibition at […] [2]: 19%
Compound: CSCC[C@@H]1NC(=O)CNC(=O)[C@@H](NC(=O)[C@H](Cc2ccccc2)NC(=O)[C@H](Cc2c[nH]c3ccccc23)NC(=O)[C@H](CCCCN)NC(=O)[C@H](Cc2ccc(O)cc2)NC(=O)[C@H](CCCNC(=N)N)NC(=O)[C@H](CO)NC(=O)[C@H](CCCCN)NC(=O)[C@H](CCCCN)NC(C)=O)CSSC[C@@H](C(=O)N[C@H](C(=O)N[C@@H](Cc2c[nH]c3ccccc23)C(=O)N[C@@H](CCCCN)C(=O)N[C@@H](CCCCN)C(N)=O)C(C)C)NC(=O)[C@H](CO)NC(=O)[C@H](CCSC)NC(=O)[C@H]([C@@H](C)O)NC(=O)CNC(=O)[C@H](CCCCN)NC(=O)[C@H](CCSC)NC(=O)[C@H](CC(=O)O)NC(=O)[C@H](CCCNC(=N)N)NC1=O [JBT0250] (Ac-KKSRYKWFCGMRDMKGTMSCVWKK-NH2; disulfide 9-20)

inhibition at […] [3]: 45%
EC50 [4]: 1.92 µM
Compound: CC(=O)N[C@@H](Cc1ccccc1)C(=O)N[C@@H](CCC(N)=O)C(=O)N[C@@H](CO)C(=O)N[C@@H](CCCCN)C(=O)N(C)CC(=O)N[C@@H](CC(N)=O)C(=O)N[C@H](C(=O)N[C@@H](Cc1ccccc1)C(=O)N[C@H](C(=O)N[C@@H](Cc1ccccc1)C(=O)NCC(=O)N[C@@H](Cc1ccc(O)cc1)C(=O)N[C@@H](Cc1ccccc1)C(=O)N[C@@H](C)C(=O)N[C@@H](CCCNC(=N)N)C(=O)N[C@@H](CC(C)C)C(=O)N[C@@H](CCCNC(=N)N)C(=O)N[C@@H](C)C(=O)N[C@@H](CCCCN)C(=O)N[C@@H](CC(C)C)C(N)=O)C(C)C)C(C)C [JBT0780] (Ac-FQSK[Sar]NVFVFGYFARLRAKL-NH2)

inhibition at […] [5]: 32%
EC50 [6]: 0.21 µM
Compound: CC(=O)N[C@@H](Cc1ccccc1)C(=O)N[C@@H](CCC(N)=O)C(=O)N[C@@H](CO)C(=O)N[C@@H](CCCCN)C(=O)N(C)CC(=O)N[C@@H](CC(N)=O)C(=O)N[C@H](C(=O)N[C@@H](Cc1ccccc1)C(=O)N[C@H](C(=O)N[C@H](C(=O)NCC(=O)N[C@@H](Cc1ccc(O)cc1)C(=O)N[C@@H](Cc1ccccc1)C(=O)N[C@@H](CCC(=O)O)C(=O)N[C@@H](CCCNC(=N)N)C(=O)N[C@@H](CC(C)C)C(=O)N[C@@H](CCCNC(=N)N)C(=O)N[C@@H](C)C(=O)N[C@@H](CCCCN)C(=O)N[C@@H](CC(C)C)C(N)=O)[C@@H](C)O)C(C)C)C(C)C [JBT1155] (Ac-FQSK[Sar]NVFVTGYFERLRAKL-NH2)

Compound: Ac-FQSK-Nmg-NVFVTGYFERL-Aib-AKL-NH2 (SEQ ID NO: 165) (Ac-FQSK[Sar]NVFVTGYFERL[Aib]AKL-NH2; SMILES CC(=O)N[C@@H](Cc1ccccc1)C(=O)N[C@@H](CCC(N)=O)C(=O)N[C@@H](CO)C(=O)N[C@@H](CCCCN)C(=O)N(C)CC(=O)N[C@@H](CC(N)=O)C(=O)N[C@H](C(=O)N[C@@H](Cc1ccccc1)C(=O)N[C@H](C(=O)N[C@H](C(=O)NCC(=O)N[C@@H](Cc1ccc(O)cc1)C(=O)N[C@@H](Cc1ccccc1)C(=O)N[C@@H](CCC(=O)O)C(=O)N[C@@H](CCCNC(=N)N)C(=O)N[C@@H](CC(C)C)C(=O)NC(C)(C)C(=O)N[C@@H](C)C(=O)N[C@@H](CCCCN)C(=O)N[C@@H](CC(C)C)C(N)=O)[C@@H](C)O)C(C)C)C(C)C) [JBT1585]
Extrinsic Tenase Inhibition assay | % Inhibition @ […] [7]: 48%
